Six compounds from ChEMBL document CHEMBL3108730, “Exploring the determinants of trace amine-associated receptor 1's functional selectivity for the stereoisomers of amphetamine and methamphetamine” (J Med Chem, 2014) can be followed below.

Active and inactive are the calls of the source. No cut-off for these calls is given here.

For experiment [1], the system named is Trace amine-associated receptor 1 (Mus musculus), Q923Y8 [D102A]. The experiment in a line: Activation of mouse TAAR1 Asp102(3.32)Ala mutant expressed in HEK293 cells assessed as stimulation of cAMP production at 0.0001 to 100 uM after 1 hr by chemiluminescent assay. The format is functional, cell-based. For orientation: Cyclic AMP is a second messenger, typically raised through Gs and lowered through Gi signalling.
Trace amine-associated receptor 1 (Mus musculus), Q923Y8 [D102A], sequence (Q923Y8 whole entry D102A): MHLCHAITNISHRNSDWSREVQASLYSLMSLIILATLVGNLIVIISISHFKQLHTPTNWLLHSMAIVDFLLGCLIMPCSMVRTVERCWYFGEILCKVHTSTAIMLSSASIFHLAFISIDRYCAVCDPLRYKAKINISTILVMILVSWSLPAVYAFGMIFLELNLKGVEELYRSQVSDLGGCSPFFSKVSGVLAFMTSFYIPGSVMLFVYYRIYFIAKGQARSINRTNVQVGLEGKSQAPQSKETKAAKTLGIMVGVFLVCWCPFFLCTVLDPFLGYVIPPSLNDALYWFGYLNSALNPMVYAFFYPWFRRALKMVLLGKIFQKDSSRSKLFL

Experiment [2] has as its target Trace amine-associated receptor 1 (Mus musculus, UniProt Q923Y8, Y287N). The experiment in a line: Activation of mouse TAAR1 transmembrane domain 7 Tyr287(7.39)Asn mutant expressed in HEK293 cells assessed as stimulation of cAMP production after 1 hr by chemiluminescent assay. The format is functional, cell-based.
Experiment [3] relates to Trace amine-associated receptor 1 (Rattus norvegicus), Q923Y9 [N287Y]. Description: Activation of rat TAAR1 transmembrane domain 7 Asn287(7.39)Tyr mutant expressed in HEK293 cells assessed as stimulation of cAMP production at 0.0001 to 100 uM after 1 hr by chemiluminescent assay relative to control. The format is functional, cell-based.
Trace amine-associated receptor 1 (Rattus norvegicus), Q923Y9 [N287Y], sequence (Q923Y9 whole entry N287Y, the tested form may be a part): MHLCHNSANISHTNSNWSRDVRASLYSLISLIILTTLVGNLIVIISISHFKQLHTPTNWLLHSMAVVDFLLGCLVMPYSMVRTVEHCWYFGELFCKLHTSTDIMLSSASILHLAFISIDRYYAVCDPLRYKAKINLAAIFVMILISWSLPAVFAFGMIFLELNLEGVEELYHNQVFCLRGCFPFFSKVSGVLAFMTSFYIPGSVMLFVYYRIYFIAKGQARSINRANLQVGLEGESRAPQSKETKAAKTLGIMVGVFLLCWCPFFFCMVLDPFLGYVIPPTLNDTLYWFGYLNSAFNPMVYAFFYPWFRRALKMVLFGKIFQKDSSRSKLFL
Experiment [4] concerns the target Trace amine-associated receptor 1 (Rattus norvegicus) (UniProt Q923Y9). The experiment in a line: Activation of rat wild type TAAR1 expressed in HEK293 cells assessed as stimulation of cAMP production at 0.0001 to 100 uM after 1 hr by chemiluminescent assay relative to control. The format is functional, cell-based.
The target in experiment [5] is Trace amine-associated receptor 1 (Rattus norvegicus, UniProt Q923Y9, N287Y). The experiment in a line: Activation of rat TAAR1 transmembrane domain 7 Asn287(7.39)Tyr mutant expressed in HEK293 cells assessed as stimulation of cAMP production after 1 hr by chemiluminescent assay. The format is functional, cell-based.
Trace amine-associated receptor 1 (Rattus norvegicus, UniProt Q923Y9, N287Y), sequence (Q923Y9 whole entry N287Y, the tested form may be a part): as above
Experiment [6] concerns Trace amine-associated receptor 1 (Mus musculus), Q923Y8 [T268M]. The experiment in a line: Activation of mouse TAAR1 transmembrane domain 6 Thr268(6.55)Met mutant expressed in HEK293 cells assessed as stimulation of cAMP production at 0.0001 to 100 uM after 1 hr by chemiluminescent assay relative to control. The format is functional, cell-based.
Trace amine-associated receptor 1 (Mus musculus), Q923Y8 [T268M], sequence (Q923Y8 whole entry T268M, the tested form may be a part): as the sequence (Q923Y8 whole entry D102A) above, with A102D, T268M counted along it
In experiment [7] the target is Trace amine-associated receptor 1 (Mus musculus) (UniProt Q923Y8). Description: Activation of mouse wild type TAAR1 expressed in HEK293 cells assessed as stimulation of cAMP production at 0.0001 to 100 uM after 1 hr by chemiluminescent assay relative to control. The format is functional, cell-based.
Trace amine-associated receptor 1 (Mus musculus), sequence (Q923Y8 whole entry, the tested form may be a part): as the sequence (Q923Y8 whole entry D102A) above, with A102D counted along it
Experiment [8] concerns Trace amine-associated receptor 1 (Rattus norvegicus), Q923Y9 [M268T]. Description: Activation of rat TAAR1 transmembrane domain 6 Met268(6.55)Thr mutant expressed in HEK293 cells assessed as stimulation of cAMP production at 0.0001 to 100 uM after 1 hr by chemiluminescent assay relative to control. The format is functional, cell-based.
Trace amine-associated receptor 1 (Rattus norvegicus), Q923Y9 [M268T], sequence (Q923Y9 whole entry M268T, the tested form may be a part): as the sequence (Q923Y9 whole entry N287Y, the tested form may be a part) above, with M268T, Y287N counted along it
Experiment [9] addresses Trace amine-associated receptor 1 (Rattus norvegicus, UniProt Q923Y9, M268T). Description: Activation of rat TAAR1 transmembrane domain 6 Met268(6.55)Thr mutant expressed in HEK293 cells assessed as stimulation of cAMP production after 1 hr by chemiluminescent assay. The format is functional, cell-based.
Experiment [10] relates to Trace amine-associated receptor 1 (Mus musculus), Q923Y8 [Y287N]. Description: Activation of mouse TAAR1 transmembrane domain 7 Tyr287(7.39)Asn mutant expressed in HEK293 cells assessed as stimulation of cAMP production at 0.0001 to 100 uM after 1 hr by chemiluminescent assay relative to control. The format is functional, cell-based.
Trace amine-associated receptor 1 (Mus musculus), Q923Y8 [Y287N], sequence (Q923Y8 whole entry Y287N, the tested form may be a part): as the sequence (Q923Y8 whole entry D102A) above, with A102D, Y287N counted along it
The target of experiment [11] is Trace amine-associated receptor 1 (Rattus norvegicus, UniProt Q923Y9). Description: Activation of rat wild type TAAR1 expressed in HEK293 cells assessed as stimulation of cAMP production after 1 hr by chemiluminescent assay. The format is functional, cell-based.
Trace amine-associated receptor 1 (Rattus norvegicus, UniProt Q923Y9), sequence (Q923Y9 whole entry, the tested form may be a part): as the sequence (Q923Y9 whole entry N287Y, the tested form may be a part) above, with Y287N counted along it
Experiment [12] deals with Trace amine-associated receptor 1 (Mus musculus, UniProt Q923Y8, T268M). The experiment in a line: Activation of mouse TAAR1 transmembrane domain 6 Thr268(6.55)Met mutant expressed in HEK293 cells assessed as stimulation of cAMP production after 1 hr by chemiluminescent assay. The format is functional, cell-based.
Trace amine-associated receptor 1 (Mus musculus, UniProt Q923Y8, T268M), sequence (Q923Y8 whole entry T268M, the tested form may be a part): as the sequence (Q923Y8 whole entry D102A) above, with A102D, T268M counted along it
For experiment [13], the target named is Trace amine-associated receptor 1 (Mus musculus, UniProt Q923Y8). The experiment in a line: Activation of mouse wild type TAAR1 expressed in HEK293 cells assessed as stimulation of cAMP production after 1 hr by chemiluminescent assay. The format is functional, cell-based.
Trace amine-associated receptor 1 (Mus musculus, UniProt Q923Y8), sequence (Q923Y8 whole entry): as the sequence (Q923Y8 whole entry D102A) above, with A102D counted along it
The target in experiment [14] is Trace amine-associated receptor 1 (Rattus norvegicus) (UniProt Q923Y9). The experiment in a line: Activation of rat wild type TAAR1 expressed in HEK293 cells assessed as stimulation of cAMP production at 0.0001 to 100 uM after 1 hr by chemiluminescent assay relative to beta-phenylethylamine. The format is functional, cell-based.
Trace amine-associated receptor 1 (Rattus norvegicus), sequence (Q923Y9 whole entry, the tested form may be a part): as the sequence (Q923Y9 whole entry N287Y, the tested form may be a part) above, with Y287N counted along it
Experiment [15] addresses Trace amine-associated receptor 1 (Mus musculus) (UniProt Q923Y8). The experiment in a line: Activation of mouse wild type TAAR1 expressed in HEK293 cells assessed as stimulation of cAMP production at 0.0001 to 100 uM after 1 hr by chemiluminescent assay relative to beta-phenylethylamine. The format is functional, cell-based.
The subject of experiment [16] is Trace amine-associated receptor 1 (Rattus norvegicus), Q923Y9 [M268T]. Description: Activation of rat TAAR1 transmembrane domain 6 Met268(6.55)Thr mutant expressed in HEK293 cells assessed as stimulation of cAMP production at 0.0001 to 100 uM after 1 hr by chemiluminescent assay relative to beta-phenylethylamine. The format is functional, cell-based.
In experiment [17] the test system is Trace amine-associated receptor 1 (Mus musculus), Q923Y8 [T268M]. The experiment in a line: Activation of mouse TAAR1 transmembrane domain 6 Thr268(6.55)Met mutant expressed in HEK293 cells assessed as stimulation of cAMP production at 0.0001 to 100 uM after 1 hr by chemiluminescent assay relative to beta-phenylethylamine. The format is functional, cell-based.

Experiment [18] relates to Trace amine-associated receptor 1 (Mus musculus), Q923Y8 [Y287N]. The experiment in a line: Activation of mouse TAAR1 transmembrane domain 7 Tyr287(7.39)Asn mutant expressed in HEK293 cells assessed as stimulation of cAMP production at 0.0001 to 100 uM after 1 hr by chemiluminescent assay relative to beta-phenylethylamine. The format is functional, cell-based.
Experiment [19] deals with Trace amine-associated receptor 1 (Rattus norvegicus), Q923Y9 [N287Y]. Description: Activation of rat TAAR1 transmembrane domain 7 Asn287(7.39)Tyr mutant expressed in HEK293 cells assessed as stimulation of cAMP production at 0.0001 to 100 uM after 1 hr by chemiluminescent assay relative to beta-phenylethylamine. The format is functional, cell-based.
The species entered for experiment [20] is Rattus norvegicus. The experiment in a line: Selectivity ratio of EC50 for rat TAAR1 transmembrane domain 6 Met268(6.55)Thr mutant to EC50 for rat wild type TAAR1.
For experiment [21], the species on record is Mus musculus. Description: Selectivity ratio of EC50 for mouse wild type TAAR1 to EC50 for mouse TAAR1 transmembrane domain 6 Thr268(6.55)Met mutant.
Experiment [22] relates to Trace amine-associated receptor 1 (Rattus norvegicus), Q923Y9 [D102A]. The experiment in a line: Activation of rat TAAR1 Asp102(3.32)Ala mutant expressed in HEK293 cells assessed as stimulation of cAMP production at 0.0001 to 100 uM after 1 hr by chemiluminescent assay relative to control. The format is functional, cell-based.
Trace amine-associated receptor 1 (Rattus norvegicus), Q923Y9 [D102A], sequence (Q923Y9 whole entry D102A): as the sequence (Q923Y9 whole entry N287Y, the tested form may be a part) above, with D102A, Y287N counted along it

Trace amine-associated receptor 1 (Mus musculus, UniProt Q923Y8, Y287N), sequence (Q923Y8 whole entry Y287N, the tested form may be a part): as the sequence (Q923Y8 whole entry D102A) above, with A102D, Y287N counted along it
Trace amine-associated receptor 1 (Rattus norvegicus, UniProt Q923Y9, M268T), sequence (Q923Y9 whole entry M268T, the tested form may be a part): as the sequence (Q923Y9 whole entry N287Y, the tested form may be a part) above, with M268T, Y287N counted along it

A word on the EC50: it is the midpoint of the concentration-response curve. As usually defined, the Emax is the greatest response seen or fitted, relative to the assay's reference. With `NCCc1ccccc1` [PHENETHYLAMINE], in experiment [1], the outcome was inactive. In addition, the half-maximal effective concentration (EC50) worked out at 58.6 nM in [2]; 171 nM in experiment [5]; 261 nM in experiment [9]; 40.3 nM in experiment [11]; 47.3 nM in experiment [12]; 189 nM in [13]. Moreover, the Emax in experiment [3] is 97.2%; in [4], 96.4%; in [6], 97.6%; in experiment [7], 95%; in experiment [8], 97.8%; in [10], 95.9%.
Regarding `C[C@@H](N)Cc1ccccc1` [LEVAMFETAMINE], the Emax in [14] came to 86.7%; in experiment [15], 93.6%; in experiment [16] it was 91.6%; in experiment [17], 90.5%; in experiment [18], 89.4%; in [19], 95.8%. The outcome in [1] was inactive. Also, the EC50 in [2] was 105 nM; in experiment [12] it was 121 nM.
With `CN[C@H](C)Cc1ccccc1`, the Emax in experiment [14] was determined as 82.5%; in [15], 96.9%; in experiment [16], 77.6%; in experiment [17], 91.5%; in [18] it was 89.6%; in experiment [19], 93.3%. Moreover, the outcome in experiment [1] was inactive. In addition, the EC50 worked out at 1600 nM in experiment [2]; 330 nM in experiment [5]; 1110 nM in [9]; 126 nM in experiment [12]; 843 nM in experiment [13]. For the same compound, the Ratio EC50 in experiment [20] and in experiment [21] was 10 in each case.
In the case of `NCCc1ccc(O)cc1`, the outcome in experiment [1] and in experiment [22] was inactive.
In the case of `C[C@H](N)Cc1ccccc1` [DEXTROAMPHETAMINE], the Emax in experiment [14] is 102%; in experiment [15], 99.8%; in experiment [16], 93.8%; in [17] it was 98%; in [18] it was 93%; in experiment [19], 103%. Further, the result in experiment [1] was inactive. In addition, the figures for the EC50 in [2], in experiment [12] and in [13] were 219 nM, 3.98 nM and 84.6 nM, respectively.
Take `CN[C@@H](C)Cc1ccccc1` [METHAMPHETAMINE]: the Emax was 94.3% in experiment [14]; 98% in experiment [15]; 94.3% in [16]; 94% in [17]; 92.2% in [18]; 101% in experiment [19]. Further, in [1], the result was inactive. Moreover, the EC50 is 1820 nM in experiment [2]; 202 nM in experiment [5]; 2040 nM in experiment [9]; 133 nM in experiment [11]; 17.8 nM in [12]; 279 nM in [13]. Moreover, the Ratio EC50 in experiment [20] and in [21] was 10 throughout.
